From PubChem BioAssay AID1259411 (Chemical Carcinogenesis Research Information System (CCRIS), 2018)
Calls of active or inactive are those of the source. How the calls were made is not given here.

System: rodent carcinogenicity bioassays, tumor incidence
Experiment: CCRIS carcinogenicity studies
Outline: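 NCI-built, expert-reviewed records of carcinogenicity and related test outcomes (mutagenicity, tumor promotion/inhibition) compiled from published and report sources, historical span 1985-2011, not updated.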

Measured: carcinogen call

ClC(Cl)Cl
inactive: Species: FISH, Strain/Sex: ORYZIPIAS LATIPES/FEMALE, Route: IMMERSION, Dose: 0, 0.017, 0.151, 1.463 MG/L AQUEOUS SOLUTION FOR 6 MO (STUDY DURATION: 6 MO), Dose: 0, 0.017, 0.151, 1.463 MG/L AQUEOUS SOLUTION FOR 6 MO (STUDY DURATION: 6 MO) inactive; negative | Species: FISH, Strain/Sex: ORYZIPIAS LATIPES/FEMALE, Route: IMMERSION, Dose: 0, 0.017, 0.151, 1.463 MG/L AQUEOUS SOLUTION FOR 9 MO (STUDY DURATION: 9 MO), Dose: 0, 0.017, 0.151, 1.463 MG/L AQUEOUS SOLUTION FOR 9 MO (STUDY DURATION: 9 MO) inactive; negative | Species: FISH, Strain/Sex: ORYZIPIAS LATIPES/MALE, Route: IMMERSION, Dose: 0, 0.017, 0.151, 1.463 MG/L AQUEOUS SOLUTION FOR 6 MO (STUDY DURATION: 6 MO), Dose: 0, 0.017, 0.151, 1.463 MG/L AQUEOUS SOLUTION FOR 6 MO (STUDY DURATION: 6 MO) inactive; negative | Species: FISH, Strain/Sex: ORYZIPIAS LATIPES/MALE, Route: IMMERSION, Dose: 0, 0.017, 0.151, 1.463 MG/L AQUEOUS SOLUTION FOR 9 MO (STUDY DURATION: 9 MO), Dose: 0, 0.017, 0.151, 1.463 MG/L AQUEOUS SOLUTION FOR 9 MO (STUDY DURATION: 9 MO) inactive; negative | Species: MOUSE, Strain/Sex: B6C3F1/FEMALE, Route: ORAL, Dose: 0, 200, 400, 900, 1800 MG/L IN DRINKING WATER FOR 104 WK (STUDY DURATION: 24 MO), Dose: 0, 200, 400, 900, 1800 MG/L IN DRINKING WATER FOR 104 WK (STUDY DURATION: 24 MO) inactive; negative | Species: MOUSE, Strain/Sex: B6C3F1/FEMALE, Route: ORAL, Dose: 0, 200, 400, 900, 1800 ML/L IN DRINKING WATER FOR AN AVERAGE DOSE OF 0, 34, 65, 130, 263 MG/KG BW/D FOR 104 WK (STUDY DU, Dose: 0, 200, 400, 900, 1800 ML/L IN DRINKING WATER FOR AN AVERAGE DOSE OF 0, 34, 65, 130, 263 MG/KG BW/D FOR 104 WK (STUDY DU inactive; negative | Species: RAT, Strain/Sex: F344/DUCRJ/MALE, Route: INHALATION, Dose: 0;25, 50, 100 PPM VAPOR CHAMBER 6 HR/D, 5 D/WK FOR 104 WK (STUDY DURATION: 104 WK), Dose: 0;25, 50, 100 PPM VAPOR CHAMBER 6 HR/D, 5 D/WK FOR 104 WK (STUDY DURATION: 104 WK) inactive; negative | Species: RAT, Strain/Sex: F344/DUCRJ/MALE, Route: ORAL, Dose: 0, 1,000 PPM IN DRINKING FOR 104 WK (STUDY DURATION: 104 WK) inactive; negative | Species: RAT, Strain/Sex: F344/FEMALE, Route: INHALATION, Dose: 0, 10, 30, 90 PPM IN AIR, 6 HR/D, 5 D/WK FOR 104 WK (STUDY DURATION: 104 WK), Dose: 0, 10, 30, 90 PPM IN AIR, 6 HR/D, 5 D/WK FOR 104 WK (STUDY DURATION: 104 WK) inactive; negative | Species: RAT, Strain/Sex: F344/MALE, Route: INHALATION, Dose: 0, 10, 30, 90 PPM IN AIR, 6 HR/D, 5 D/WK FOR 104 WK (STUDY DURATION: 104 WK), Dose: 0, 10, 30, 90 PPM IN AIR, 6 HR/D, 5 D/WK FOR 104 WK (STUDY DURATION: 104 WK) inactive; negative | Species: RAT, Strain/Sex: WISTAR/MALE, Route: ORAL, Dose: 0, 2 ML/L (24 MILLIMOLAR) IN DRINKING WATER FOR 72 WK THEN DOSE HALVED FOR DURATION OF STUDY (STUDY DURATION: LIFETIME) inactive; negative | Species: Rat, Strain/Sex: F344/DuCrj/ Male (50 per group), Route: Inhalation, Dose: 0, 25, 50, 100 ppm in air, 6 hr/d, 5 d/wk for 104 wk, Dose: 0, 25, 50, 100 ppm in air, 6 hr/d, 5 d/wk for 104 wk, Tumor Site: Type of Lesion: KIDNEY: one renal-cell adenoma in the high dose group inactive; negative
active: Species: MOUSE, Strain/Sex: B6C3F1/MALE,FEMALE, Route: GAVAGE, Tumor Site: Type of Lesion: LIVER: HEPATOCELLULAR CARCINOMA active; positive | Species: MOUSE, Strain/Sex: BDF1/FEMALE, Route: INHALATION, Dose: 0, 5, 30, 90 PPM IN AIR, 6 HR/D, 5 D/WK FOR 104 WK (STUDY DURATION: 104 WK), Dose: 0, 5, 30, 90 PPM IN AIR, 6 HR/D, 5 D/WK FOR 104 WK (STUDY DURATION: 104 WK), Tumor Site: Type of Lesion: LIVER: HEPATOCELLULAR CARCINOMA, HEPATOCELLULAR CARCINOMA AND ADENOMA active; positive | Species: MOUSE, Strain/Sex: BDF1/MALE, Route: INHALATION, Dose: 0, 5, 30, 90 PPM IN AIR, 6 HR/D, 5 D/WK FOR 104 WK (STUDY DURATION: 104 WK), Dose: 0, 5, 30, 90 PPM IN AIR, 6 HR/D, 5 D/WK FOR 104 WK (STUDY DURATION: 104 WK), Tumor Site: Type of Lesion: LIVER: HEPATOCELLULAR CARCINOMA, HEPATOCELLULAR CARCINOMA AND ADENOMA, KIDNEYS: RENAL CELL CARCINOMA, RENAL CELL ADENOMA active; positive | Species: RAT, Strain/Sex: F344/DUCRJ/MALE, Route: ORAL AND INHALATION, Dose: 0, 1,000 PPM IN DRINKING WATER AND 0, 25, 50, 100 PPM VAPOR CHAMBER 6 HR/D, 5 D/WK , BOTH FOR 104 WK (STUDY DURATION: 10, Dose: 0, 1,000 PPM IN DRINKING WATER AND 0, 25, 50, 100 PPM VAPOR CHAMBER 6 HR/D, 5 D/WK , BOTH FOR 104 WK (STUDY DURATION: 10, Tumor Site: Type of Lesion: KIDNEY: ADENOMA, CARCINOMA, THYROID: ADENOMA, CARCINOMA active; positive | Species: RAT, Strain/Sex: OSBORNE-MENDEL/MALE, Route: GAVAGE, Tumor Site: Type of Lesion: KIDNEY: ADENOMA, CARCINOMA active; positive | Species: RAT, Strain/Sex: OSBORNE-MENDEL/MALE, Route: ORAL, Dose: 0, 200, 400, 900, 1800 MG/L IN DRINKING WATER FOR 104 WK (STUDY DURATION: 24 MO), Dose: 0, 200, 400, 900, 1800 MG/L IN DRINKING WATER FOR 104 WK (STUDY DURATION: 24 MO), Tumor Site: Type of Lesion: KIDNEY: TUBULAR CELL CARCINOMA OR ADENOCARCINOMA, TUBULAR CELL CARCINOMA, ADRENAL GLAND: CORTICAL ADENOMA, PHEOCHROMOCYT active; positive | Species: RAT, Strain/Sex: OSBORNE-MENDEL/MALE, Route: ORAL, Dose: 0, 200, 400, 900, 1800 ML/L IN DRINKING WATER FOR AN AVERAGE DOSE OF 0, 19, 38, 81, 160 MG/KG BW/D FOR 104 WK (STUDY DUR, Dose: 0, 200, 400, 900, 1800 ML/L IN DRINKING WATER FOR AN AVERAGE DOSE OF 0, 19, 38, 81, 160 MG/KG BW/D FOR 104 WK (STUDY DUR, Tumor Site: Type of Lesion: KIDNEY (TUBULAR CELL): ADENOMA OR ADENOCARCINOMA active; positive | Species: RAT, Strain/Sex: WISTAR/FEMALE, Route: ORAL, Dose: 0, 2 ML/L (24 MILLIMOLAR) IN DRINKING WATER FOR 72 WK THEN DOSE HALVED FOR DURATION OF STUDY (STUDY DURATION: LIFETIME), Tumor Site: Type of Lesion: LIVER: NEOPLASTIC NODULES active; positive | Species: Rat, Strain/Sex: F344/DuCrj/ Male (50 per group), Route: Inhalation and oral (drinking water), Dose: 0, 25, 50, 100 ppm in air, 6 hr/d, 5 d/wk for 104 wk, each group also given chloroform-formulated drinking water (1000 p, Dose: 0, 25, 50, 100 ppm in air, 6 hr/d, 5 d/wk for 104 wk, each group also given chloroform-formulated drinking water (1000 p, Tumor Site: Type of Lesion: KIDNEY: renal-cell adenomas and carcinomas active; positive, positive trend; significant increase in high dose group; exposure leve
